From PubChem BioAssay AID1919008 (Molecular Pharmacology Branch, DTP, NCI, 2023)

System: DMS-114 complex spheroids with HUVEC/MSC, growth % test/control
Assay: Anticancer human tumor DMS-114 cell line growth inhibition [AhR];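 also: spheroids exposed to agents for 7 days before readout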;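 as to viability, T/C: 100% = DMSO vehicle control wells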
Conditions: for IC50: curve of first compound; for viability, T/C: stronger effect = lower value
Summary of the method: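 Complex tumor spheroids co-cultured with HUVEC and human MSC stroma; AhR antagonists tested in combination with standard-of-care and investigational agents. Top concentration at or near clinical Cmax (else 10 microM), half-log dilutions; growth expressed as percent test/control.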

[1] = second compound 0.1 µM, first compound 0.0316 µM
[2] = second compound 0.1 µM, first compound 0.1 µM
[3] = second compound 0.1 µM, first compound 0.316 µM
[4] = second compound 0.1 µM, first compound 1 µM
[5] = second compound 0.316 µM, first compound 0.0316 µM
[6] = second compound 0.316 µM, first compound 0.1 µM
[7] = second compound 0.316 µM, first compound 0.316 µM
[8] = second compound 0.316 µM, first compound 1 µM
[9] = second compound 1 µM, first compound 0.0316 µM
[10] = second compound 1 µM, first compound 0.1 µM
[11] = second compound 1 µM, first compound 0.316 µM
[12] = second compound 1 µM, first compound 1 µM
[13] = second compound 3.16 µM, first compound 0.0316 µM
[14] = second compound 3.16 µM, first compound 0.1 µM
[15] = second compound 3.16 µM, first compound 0.316 µM
[16] = second compound 3.16 µM, first compound 1 µM
[17] = second compound 10 µM, first compound 0.0316 µM
[18] = second compound 10 µM, first compound 0.1 µM
[19] = second compound 10 µM, first compound 0.316 µM
[20] = second compound 10 µM, first compound 1 µM
[21] = second compound 0.1 µM, first compound 0.00949 µM
[22] = second compound 0.1 µM, first compound 0.03 µM
[23] = second compound 0.1 µM, first compound 0.0949 µM
[24] = second compound 0.1 µM, first compound 0.3 µM
[25] = second compound 0.1 µM, first compound 0.949 µM
[26] = second compound 0.1 µM, first compound 3 µM
[27] = second compound 0.316 µM, first compound 0.00949 µM
[28] = second compound 0.316 µM, first compound 0.03 µM
[29] = second compound 0.316 µM, first compound 0.0949 µM
[30] = second compound 0.316 µM, first compound 0.3 µM
[31] = second compound 0.316 µM, first compound 0.949 µM
[32] = second compound 0.316 µM, first compound 3 µM
[33] = second compound 1 µM, first compound 0.00949 µM
[34] = second compound 1 µM, first compound 0.03 µM
[35] = second compound 1 µM, first compound 0.0949 µM
[36] = second compound 1 µM, first compound 0.3 µM
[37] = second compound 1 µM, first compound 0.949 µM
[38] = second compound 1 µM, first compound 3 µM
[39] = second compound 3.16 µM, first compound 0.00949 µM
[40] = second compound 3.16 µM, first compound 0.03 µM
[41] = second compound 3.16 µM, first compound 0.0949 µM
[42] = second compound 3.16 µM, first compound 0.3 µM
[43] = second compound 3.16 µM, first compound 0.949 µM
[44] = second compound 3.16 µM, first compound 3 µM
[45] = second compound 10 µM, first compound 0.00949 µM
[46] = second compound 10 µM, first compound 0.03 µM
[47] = second compound 10 µM, first compound 0.0949 µM
[48] = second compound 10 µM, first compound 0.3 µM
[49] = second compound 10 µM, first compound 0.949 µM
[50] = second compound 10 µM, first compound 3 µM

CC1COCCN1c1cc(-c2ccnn2C)c2ccnc(-c3ccn[nH]3)c2n1 (stereo not given) + CC(CO)NC(=O)c1cc(-c2ccc(Cl)cc2)nn(-c2cnn(C)c2)c1=O
IC50 (second compound 0.1 µM): 50.8 nM | IC50 (second compound 0.316 µM): 65 nM | IC50 (second compound 1 µM): 34.2 nM | IC50 (second compound 3.16 µM): 33.6 nM | IC50 (second compound 10 µM): 21.1 nM | viability, T/C (second compound 0.1 µM, first compound 0.00316 µM): 90.1% | viability, T/C (second compound 0.1 µM, first compound 0.01 µM): 82% | viability, T/C [1]: 59.1% | viability, T/C [2]: 34.4% | viability, T/C [3]: 27.9% | viability, T/C [4]: 15.8% | viability, T/C (second compound 0.316 µM, first compound 0.00316 µM): 93% | viability, T/C (second compound 0.316 µM, first compound 0.01 µM): 89.1% | viability, T/C [5]: 60.1% | viability, T/C [6]: 42.7% | viability, T/C [7]: 26.2% | viability, T/C [8]: 15.2% | viability, T/C (second compound 1 µM, first compound 0.00316 µM): 85.3% | viability, T/C (second compound 1 µM, first compound 0.01 µM): 94.4% | viability, T/C [9]: 51.8% | viability, T/C [10]: 34.4% | viability, T/C [11]: 27.6% | viability, T/C [12]: 14.6% | viability, T/C (second compound 3.16 µM, first compound 0.00316 µM): 84.8% | viability, T/C (second compound 3.16 µM, first compound 0.01 µM): 73.7% | viability, T/C [13]: 49.4% | viability, T/C [14]: 31.6% | viability, T/C [15]: 22.3% | viability, T/C [16]: 13.9% | viability, T/C (second compound 10 µM, first compound 0.00316 µM): 86.8% | viability, T/C (second compound 10 µM, first compound 0.01 µM): 63.2% | viability, T/C [17]: 42.2% | viability, T/C [18]: 29.6% | viability, T/C [19]: 24.1% | viability, T/C [20]: 14.8%

CC1COCCN1c1cc(C2(S(C)(=N)=O)CC2)nc(-c2ccnc3[nH]ccc23)n1 (stereo not given) + CC(CO)NC(=O)c1cc(-c2ccc(Cl)cc2)nn(-c2cnn(C)c2)c1=O
IC50 (second compound 0.1 µM): 4220 nM | IC50 (second compound 0.316 µM): 4930 nM | IC50 (second compound 1 µM): 4930 nM | IC50 (second compound 3.16 µM): 2120 nM | IC50 (second compound 10 µM): 1780 nM | viability, T/C [1]: 109% | viability, T/C [2]: 84.7% | viability, T/C [3]: 96.7% | viability, T/C [4]: 84.6% | viability, T/C (second compound 0.1 µM, first compound 3.16 µM): 54.3% | viability, T/C (second compound 0.1 µM, first compound 10 µM): 36.1% | viability, T/C [5]: 94.9% | viability, T/C [6]: 101% | viability, T/C [7]: 93.4% | viability, T/C [8]: 89.5% | viability, T/C (second compound 0.316 µM, first compound 3.16 µM): 62.2% | viability, T/C (second compound 0.316 µM, first compound 10 µM): 30.5% | viability, T/C [9]: 112% | viability, T/C [10]: 86.6% | viability, T/C [11]: 85.8% | viability, T/C [12]: 91.2% | viability, T/C (second compound 1 µM, first compound 3.16 µM): 55.6% | viability, T/C (second compound 1 µM, first compound 10 µM): 33.4% | viability, T/C [13]: 105% | viability, T/C [14]: 106% | viability, T/C [15]: 93.6% | viability, T/C [16]: 65.4% | viability, T/C (second compound 3.16 µM, first compound 3.16 µM): 43% | viability, T/C (second compound 3.16 µM, first compound 10 µM): 27.1% | viability, T/C [17]: 103% | viability, T/C [18]: 96.1% | viability, T/C [19]: 98.9% | viability, T/C [20]: 61.1% | viability, T/C (second compound 10 µM, first compound 3.16 µM): 41.3% | viability, T/C (second compound 10 µM, first compound 10 µM): 27.7%

CCN(c1cc(-c2ccc(CN3CCOCC3)cc2)cc(C(=O)NCc2c(C)cc(C)[nH]c2=O)c1C)C1CCOCC1 + CC(CO)NC(=O)c1cc(-c2ccc(Cl)cc2)nn(-c2cnn(C)c2)c1=O
IC50 (second compound 0.1 µM): > 3000 nM | IC50 (second compound 0.316 µM): > 3000 nM | IC50 (second compound 1 µM): > 3000 nM | IC50 (second compound 3.16 µM): > 3000 nM | IC50 (second compound 10 µM): > 3000 nM | viability, T/C [21]: 95.4% | viability, T/C [22]: 86.3% | viability, T/C [23]: 103% | viability, T/C [24]: 100% | viability, T/C [25]: 98% | viability, T/C [26]: 92.5% | viability, T/C [27]: 110% | viability, T/C [28]: 107% | viability, T/C [29]: 104% | viability, T/C [30]: 102% | viability, T/C [31]: 92.8% | viability, T/C [32]: 93% | viability, T/C [33]: 98.3% | viability, T/C [34]: 106% | viability, T/C [35]: 109% | viability, T/C [36]: 104% | viability, T/C [37]: 95.7% | viability, T/C [38]: 101% | viability, T/C [39]: 118% | viability, T/C [40]: 96.5% | viability, T/C [41]: 111% | viability, T/C [42]: 104% | viability, T/C [43]: 93.3% | viability, T/C [44]: 91% | viability, T/C [45]: 117% | viability, T/C [46]: 98.1% | viability, T/C [47]: 117% | viability, T/C [48]: 100% | viability, T/C [49]: 92.4% | viability, T/C [50]: 86.5%

Nc1ncn(C2CC(O)C(CO)S2)c(=O)n1 (stereo not given) + CC(CO)NC(=O)c1cc(-c2ccc(Cl)cc2)nn(-c2cnn(C)c2)c1=O
IC50 (second compound 0.1 µM): > 300 nM | IC50 (second compound 0.316 µM): > 300 nM | IC50 (second compound 1 µM): > 300 nM | IC50 (second compound 3.16 µM): > 300 nM | IC50 (second compound 10 µM): > 300 nM | viability, T/C (second compound 0.1 µM, first compound 0.000949 µM): 117% | viability, T/C (second compound 0.1 µM, first compound 0.003 µM): 101% | viability, T/C [21]: 108% | viability, T/C [22]: 115% | viability, T/C [23]: 85.3% | viability, T/C [24]: 59.5% | viability, T/C (second compound 0.316 µM, first compound 0.000949 µM): 111% | viability, T/C (second compound 0.316 µM, first compound 0.003 µM): 113% | viability, T/C [27]: 92.7% | viability, T/C [28]: 89.5% | viability, T/C [29]: 79.9% | viability, T/C [30]: 58.3% | viability, T/C (second compound 1 µM, first compound 0.000949 µM): 107% | viability, T/C (second compound 1 µM, first compound 0.003 µM): 107% | viability, T/C [33]: 96.9% | viability, T/C [34]: 102% | viability, T/C [35]: 80% | viability, T/C [36]: 55.7% | viability, T/C (second compound 3.16 µM, first compound 0.000949 µM): 112% | viability, T/C (second compound 3.16 µM, first compound 0.003 µM): 107% | viability, T/C [39]: 115% | viability, T/C [40]: 118% | viability, T/C [41]: 66.2% | viability, T/C [42]: 51.9% | viability, T/C (second compound 10 µM, first compound 0.000949 µM): 126% | viability, T/C (second compound 10 µM, first compound 0.003 µM): 108% | viability, T/C [45]: 108% | viability, T/C [46]: 103% | viability, T/C [47]: 87.8% | viability, T/C [48]: 58%

O=C(C=Cn1cnc(-c2cc(C(F)(F)F)cc(C(F)(F)F)c2)n1)NNc1cnccn1 + CC(CO)NC(=O)c1cc(-c2ccc(Cl)cc2)nn(-c2cnn(C)c2)c1=O
IC50 (second compound 0.1 µM): 183 nM | IC50 (second compound 0.316 µM): 156 nM | IC50 (second compound 1 µM): 169 nM | IC50 (second compound 3.16 µM): 180 nM | IC50 (second compound 10 µM): 209 nM | viability, T/C [21]: 103% | viability, T/C [22]: 99.2% | viability, T/C [23]: 63.3% | viability, T/C [24]: 38.2% | viability, T/C [25]: 18.7% | viability, T/C [26]: 7.72% | viability, T/C [27]: 97.8% | viability, T/C [28]: 93.9% | viability, T/C [29]: 57.2% | viability, T/C [30]: 36.1% | viability, T/C [31]: 16.8% | viability, T/C [32]: 7.29% | viability, T/C [33]: 85.8% | viability, T/C [34]: 97.2% | viability, T/C [35]: 59.4% | viability, T/C [36]: 37% | viability, T/C [37]: 16.4% | viability, T/C [38]: 8.32% | viability, T/C [39]: 97.1% | viability, T/C [40]: 121% | viability, T/C [41]: 54.1% | viability, T/C [42]: 43.9% | viability, T/C [43]: 17.7% | viability, T/C [44]: 6.66% | viability, T/C [45]: 95.2% | viability, T/C [46]: 96.4% | viability, T/C [47]: 64.2% | viability, T/C [48]: 44% | viability, T/C [49]: 18.4% | viability, T/C [50]: 9.22%
